# Patent US8895033B2, “Sustained release formulations using non-aqueous carriers” (Amylin Pharmaceuticals, LLC, priority 2008, dated 2014)
# Assay: Fraction of drug in microparticles and in MCT oil carrier after storage
# Type: physicochemical
# Source text: Mixtures ranged from 2% to 10% w/w of the active pharmaceutical ingredient. The mixed powder was transferred to an extruder where the temperature was adjusted according to the chosen polymer. Some polymers needed higher temperatures to produce a melt with good flow properties. The extruder contained twin screws that moved clockwise to produce efficient mixing. The material was extruded through a 1.5 mm orifice, collected, cooled at room temperature, and cut into short strands about 1-2 inches long. These strands were then fed into a 12-tooth rotor mill, followed by a sieving step to produce microparticles of about 20 to 100 microns. The microparticles were collected and stored at 5° C. until further use.
# Experimental samples were prepared by dispersing about 50 mg of the microparticles into 0.75 mL of a MCT oil carrier. The samples were stored at 5° C. and 25° C. for two days, two weeks, or one month, at which times representative samples were tested. The fraction of drug that remained in the microparticles and the fraction of drug that partitioned into the MCT oil carrier were determined. Briefly, the samples were centrifuged to separate the microparticles from the MCT oil carrier. Each portion was treated independently to determine the amount of drug it contained. Results are reported on the basis of the percent residing in each independent portion.
# [1] = PLGA copolymer, 1 Month Storage at 5° C.
# [2] = PLGA copolymer, 1 Month Storage at 25° C.
# [3] = PLGA copolymer, 2 Days Storage at 5° C.
# [4] = PLGA copolymer, 2 Days Storage at 25° C.
# [5] = polycaprolactone/PLGA copolymer, Two Weeks Storage, 5° C.
# [6] = polycaprolactone/PLGA copolymer, Two Weeks Storage, 25° C.
percent of drug in MCT Carrier [5] [%],percent of drug in Microparticles [5] [%],percent of drug in MCT Carrier [6] [%],percent of drug in Microparticles [6] [%],Molecule,percent of drug in MCT Carrier [1] [%],percent of drug in Microparticles [1] [%],percent of drug in MCT Carrier [2] [%],percent of drug in Microparticles [2] [%],percent of drug in MCT Carrier [3] [%],percent of drug in Microparticles [3] [%],percent of drug in MCT Carrier [4] [%],percent of drug in Microparticles [4] [%],migration into the MCT carrier oil (from microparticles on storage)
,,,,O=C([O-])c1ccccc1O.[Na+] [sodium salicylate],1.3,98.7,1.5,98.5,0.5,99.5,2.3,97.7,
,,,,insulin,0.5,99.5,0.7,,,,,,
,,,,davalintide,0.6,99.4,0.0,100.0,0.2,99.8,0.0,100.0,
,,,,bovine serum albumin,0.0,100.0,0.0,100.0,0.0,100.0,0.0,100.0,
0.0,100.0,0.0,100.0,CC[C@H](C)[C@H](NC(=O)[C@@H]1CCCN1C(=O)CNC(=O)[C@H](Cc1ccccc1)NC(=O)[C@H](CC(N)=O)NC(=O)[C@H](CC(N)=O)NC(=O)[C@H](CO)NC(=O)[C@H](CO)NC(=O)[C@H](Cc1c[nH]cn1)NC(=O)[C@@H](NC(=O)[C@H](CC(C)C)NC(=O)[C@H](Cc1ccccc1)NC(=O)[C@H](CC(N)=O)NC(=O)[C@H](C)NC(=O)[C@H](CC(C)C)NC(=O)[C@H](CCCNC(=N)N)NC(=O)[C@H](CCC(N)=O)NC(=O)[C@@H](NC(=O)[C@H](C)NC(=O)[C@@H]1CSSC[C@H](NC(=O)[C@@H](N)CCCCN)C(=O)N[C@@H](CC(N)=O)C(=O)N[C@@H]([C@@H](C)O)C(=O)N[C@@H](C)C(=O)N[C@@H]([C@@H](C)O)C(=O)N1)[C@@H](C)O)C(C)C)C(=O)N[C@@H](CC(C)C)C(=O)N1CCC[C@H]1C(=O)N1CCC[C@H]1C(=O)N[C@H](C(=O)N[C@@H](CC(N)=O)C(=O)N[C@H](C(=O)NCC(=O)N[C@@H](CO)C(=O)N[C@@H](CC(N)=O)C(=O)N[C@H](C(=O)N[C@@H](Cc1ccc(O)cc1)C(N)=O)[C@@H](C)O)C(C)C)[C@@H](C)O [pramlintide],0.3,99.7,0.0,100.0,0.0,100.0,0.0,100.0,
,,,,O=C(O)c1ccccc1O [salicylic acid],0.1,99.9,0.2,99.8,1.1,98.9,0.9,99.1,did not migrate
,,,,metreleptin,0.0,100.0,0.0,100.0,0.0,100.0,0.0,100.0,
